From patent publication US20220193064A1, “MEDICAMENT FOR TREATING CANCER” (CHIOME BIOSCIENCE INC., priority 2019, published 2022)
Like-named read-outs stand apart in the source and are kept apart here.

Experiments:
Hep3B xenograft model [1] = assay: combined effect of lenvatinib and anti-hDLK-1 antibody on tumorigenesis inhibitory activity, Hep3B xenograft model; format: in vivo, NOD/ShiJic-scidJcl mice; conditions: for tumor weight: tumors collected on final day of observation (Day 38)
Excerpt: Using a Hep3B xenograft model, lenvatinib mesylate and anti-hDLK-1 antibody were studied for their combined effect on tumorigenesis inhibitory activity.
(§1) The lenvatinib mesylate used here was commercially available (hereinafter simply referred to as “lenvatinib” in this example). The anti-hDLK-1 antibody used here was “HuBA-1-3D-1-A24G/T73K antibody” found in WO2014/054820 (hereinafter simply referred to as “HuBA-1-3D antibody” in this example), and DNA encoding this antibody protein was constructed in accordance with the procedures shown in WO2014/054820 (see the Example section in the specification), followed by production and preparation of this antibody protein in host cells using the GlymaxX® technology (ProBioGen AG; see https://www.probiogen.de/genetic-glyco-engineering-adcc-glymaxx.html). It should be noted that the HuBA-1-3D-1-A24G/T73K antibody used here has an H chain V region consisting of the amino acid sequence shown in SEQ ID NO: 36 and an L chain V region consisting of the amino acid sequence shown in SEQ ID NO: 46.
1×10^6 Hep3B cells were transplanted subcutaneously into the right flank of female NOD/ShiJic-scidJcl mice at 6 to 7 weeks of age (Day 0). At the stage where the mean tumor volume reached around 100 mm^3 (Day 14), these mice were divided into the following groups: the control group (N=8, 103.5±18.1 mm^3), the group receiving lenvatinib (3 mg/kg body weight) (N=8, 102.8±16.8 mm^3), the group receiving HuBA-1-3D antibody (1 mg/kg body weight) (N=8, 102.7±15.0 mm^3), and the group receiving both lenvatinib (3 mg/kg body weight) and HuBA-1-3D antibody (1 mg/kg body weight) (N=8, 102.5±12.5 mm^3) (hereinafter referred to as the group receiving lenvatinib+HuBA-1-3D antibody). For a period of 12 days starting from Day 14, HuBA-1-3D antibody was administered twice a week (4 times in total; Days 14, 18, 22 and 25), and lenvatinib was administered 5 times a week (administration for 5 days and withdrawal for 2 days) (10 times in total; Days 14, 15, 16, 17, 18, 21, 22, 23, 24 and 25). The tumor volume was measured at a frequency of twice a week, and an animal whose tumor volume reached 1500 mm^3 was excluded from observation.

HepG2 xenograft model [2] = assay: combined effect of lenvatinib and anti-hDLK-1 antibody on tumorigenesis inhibitory activity, HepG2 xenograft model; format: in vivo, NOD/ShiJic-scidJcl mice
Excerpt: Using a HepG2 xenograft model, lenvatinib mesylate and anti-hDLK-1 antibody were studied for their combined effect on tumorigenesis inhibitory activity.
as §1
5×10^6 HepG2 cells were transplanted subcutaneously into the right flank of female NOD/ShiJic-scidJcl mice at 7 weeks of age (Day 0). At the stage where the mean tumor volume reached around 100 mm^3 (Day 10), these mice were divided into the following groups: the control group (N=8, 118.4±15 6 mm^3), the group receiving lenvatinib (10 mg/kg body weight) (N=8, 118.8±15.2 mm^3), the group receiving HuBA-1-3D antibody (1 mg/kg body weight) (N=8, 119.8±12.9 mm^3), and the group receiving both lenvatinib (10 mg/kg body weight) and HuBA-1-3D antibody (1 mg/kg body weight) (N=8, 119.7±13.4 mm^3) (hereinafter referred to as the group receiving lenvatinib+HuBA-1-3D antibody). For a period of 12 days starting from Day 10, HuBA-1-3D antibody was administered twice a week (4 times in total; Days 10, 13, 17 and 21), and lenvatinib was administered 5 times a week (administration for 5 days and withdrawal for 2 days) (10 times in total; Days 10, 11, 12, 13, 14, 17, 18, 19, 20 and 21). The tumor volume was measured at a frequency of twice a week, and an animal whose tumor volume reached 1500 mm^3 was excluded from observation.

Hep3B xenograft model [3] = assay: sensitivity to lenvatinib in Hep3B xenograft therapeutic model; format: in vivo, NOD/SCID mice; conditions: Day 29; for tumor volume (mean±standard deviation): 5 times a week, N=8; for tumor volume ratio (T/C) relative to the vehicle group: P<0.05
Excerpt: (§2) Two cell lines (Hep3B and HepG2) derived from human hepatocellular carcinoma were compared for their sensitivity to lenvatinib mesylate (commercially available; hereinafter simply referred to as “lenvatinib” in this example) in xenograft therapeutic models.
In a Hep3B xenograft model, NOD/SCID mice were transplanted with the cells subcutaneously, and then divided into groups of 8 mice each at the time when the mean tumor volume exceeded 100 mm^3 (Day 14), and administration was started on the same day. The administration was conducted at a dose of 10 μL/g per mouse body weight via the oral route with an oral sonde, 5 times a week (administration for 5 days and withdrawal for 2 days) (12 times in total; Days 14, 15, 16, 17, 18, 21, 22, 23, 24, 25, 28 and 29) until the final day of the test. The tumor volume (mean±standard deviation) at 29 days after transplantation (Day 29; the final day of the test) was 1050.3±553.8 mm^3 in the group receiving vehicle (water for injection) (N=8), 400.9±160.9 mm^3 in the group receiving lenvatinib (3 mg/kg) (N=8), 200.2±133.3 mm^3 in the group receiving lenvatinib (10 mg/kg) (N=8), and 136.2±33.8 mm^3 in the group receiving lenvatinib (30 mg/kg) (N=8). The tumor volume ratio (T/C) relative to the vehicle group on Day 29 was 38.2% (P<0.05), 19.1% (P<0.05) and 13.0% (P<0.05), respectively, in the groups receiving lenvatinib (3, 10 and 30 mg/kg) (FIG. 3A).

HepG2 xenograft model [4] = assay: sensitivity to lenvatinib in HepG2 xenograft therapeutic model; format: in vivo, NOD/SCID mice; conditions: Day 28; for tumor volume (mean±standard deviation): 5 times a week, N=8; for tumor volume ratio (T/C) relative to the vehicle group: P<0.05
Excerpt: as §2
NOD/SCID mice were transplanted with the cells subcutaneously, and then divided into groups of 8 mice each at the time when the mean tumor volume exceeded 100 mm^3 (Day 10), and administration was started on the same day. The administration was conducted at a dose of 10 μL/g per mouse body weight via the oral route with an oral sonde, 5 times a week (administration for 5 days and withdrawal for 2 days) (14 times in total; Days 10, 11, 12, 13, 14, 17, 18, 19, 20, 21, 24, 25, 26 and 27) until the day before the final day of the test. The tumor volume (mean±standard deviation) at 28 days after transplantation (Day 28; the final day of the test) was 1163.0±205.1 mm^3 in the group receiving vehicle (water for injection) (N=8), 892.5±220.7 mm^3 in the group receiving lenvatinib (3 mg/kg) (N=8), 506.8±215.7 mm^3 in the group receiving lenvatinib (10 mg/kg) (N=8), and 380.0±146.8 mm^3 in the group receiving lenvatinib (30 mg/kg) (N=8). The tumor volume ratio (T/C) relative to the vehicle group on Day 28 was 76.7% (P<0.05), 43.6% (P<0.05) and 32.7% (P<0.05), respectively, in the groups receiving lenvatinib (3, 10 and 30 mg/kg) (FIG. 3B).

[5] = tested on: unresectable hepatocellular carcinoma; conditions: cited from earlier work
[6] = Day 25 (final day of administration), lenvatinib 3 mg/kg 5 times a week, HuBA-1-3D antibody 1 mg/kg twice a week, N=8
[7] = Day 31 (6 days after completion of administration), lenvatinib 3 mg/kg, HuBA-1-3D antibody 1 mg/kg
[8] = Day 38 (13 days after completion of administration), lenvatinib 3 mg/kg, HuBA-1-3D antibody 1 mg/kg
[9] = lenvatinib 3 mg/kg, HuBA-1-3D antibody 1 mg/kg
[10] = Day 21 (final day of administration), lenvatinib 10 mg/kg 5 times a week, HuBA-1-3D antibody 1 mg/kg twice a week, N=8
[11] = Day 31 (10 days after completion of administration), lenvatinib 10 mg/kg, HuBA-1-3D antibody 1 mg/kg, N=8
[12] = Day 34 (13 days after completion of administration), lenvatinib 10 mg/kg, HuBA-1-3D antibody 1 mg/kg
[13] = primary therapeutic agent, unresectable hepatocellular carcinoma, whole treatment group

COc1cc2nccc(Oc3ccc(NC(=O)NC4CC4)c(Cl)c3)c2cc1C(N)=O [lenvatinib, 4-[3-chloro-4-(cyclopropylcarbamoylamino)phenoxy]-7-methoxy-quinoline-6-carboxamide]
tumor volume (Hep3B xenograft model [1]; [6]): 268.1±175.7 mm^3 | tumor volume (Hep3B xenograft model [1]; [7]): 572.2±456.0 mm^3 | tumor volume (Hep3B xenograft model [1]; [8]): 1148.5±591.0 mm^3 | tumor weight (Hep3B xenograft model [1]; [9]): 841.1 ± 515.8 mg | tumor volume (HepG2 xenograft model [2]; [10]): 326.2±188.7 mm^3 | tumor volume (HepG2 xenograft model [2]; [11]): 817.4±583.4 mm^3 | animals sacrificed whose tumor volume exceeded 1500 mm^3 (HepG2 xenograft model [2]; Day 31, lenvatinib 10 mg/kg): one of the 8 animals | tumor volume (HepG2 xenograft model [2]; [12]): 796.2±461.7 mm^3 | tumor volume (mean±standard deviation) (Hep3B xenograft model [3]; lenvatinib 3 mg/kg oral): 400.9±160.9 mm^3 | tumor volume ratio (T/C) relative to the vehicle group (Hep3B xenograft model [3]; lenvatinib 3 mg/kg): 38.2% | tumor volume (mean±standard deviation) (Hep3B xenograft model [3]; lenvatinib 10 mg/kg oral): 200.2±133.3 mm^3 | tumor volume ratio (T/C) relative to the vehicle group (Hep3B xenograft model [3]; lenvatinib 10 mg/kg): 19.1% | tumor volume (mean±standard deviation) (Hep3B xenograft model [3]; lenvatinib 30 mg/kg oral): 136.2±33.8 mm^3 | tumor volume ratio (T/C) relative to the vehicle group (Hep3B xenograft model [3]; lenvatinib 30 mg/kg): 13.0% | tumor volume (mean±standard deviation) (HepG2 xenograft model [4]; lenvatinib 3 mg/kg oral): 892.5±220.7 mm^3 | tumor volume ratio (T/C) relative to the vehicle group (HepG2 xenograft model [4]; lenvatinib 3 mg/kg): 76.7% | tumor volume (mean±standard deviation) (HepG2 xenograft model [4]; lenvatinib 10 mg/kg oral): 506.8±215.7 mm^3 | tumor volume ratio (T/C) relative to the vehicle group (HepG2 xenograft model [4]; lenvatinib 10 mg/kg): 43.6% | tumor volume (mean±standard deviation) (HepG2 xenograft model [4]; lenvatinib 30 mg/kg oral): 380.0±146.8 mm^3 | tumor volume ratio (T/C) relative to the vehicle group (HepG2 xenograft model [4]; lenvatinib 30 mg/kg): 32.7% | efficacy ([5]; Japanese population (of 81 patients) assigned to the lenvatinib group): 46.9% | efficacy [5, 13]: 40.6%

CNC(=O)c1cc(Oc2ccc(NC(=O)Nc3ccc(Cl)c(C(F)(F)F)c3)cc2)ccn1 [sorafenib]
efficacy [5, 13]: 12.4%

B1: HuBA-1-3D antibody: humanized anti-hDLK-1 antibody from WO2014/054820; H chain V region SEQ ID NO: 36, L chain V region SEQ ID NO: 46; GlymaxX produced (antibody, V domains shown)
VH: QVQLVQSGAEVKKPGASVKVSCKGSGYTFTDYAMHWVRQAPGQGLEWIGVISTYYGNTNYNQKFKGKATMTVDKSTSTAYMELRSLRSDDTAVYYCARGGLREYYYAMDYWGQGTMVTVSS
VL: DIVMTQSPDSLAVSLGERATINCKSSQSLLNSSNQKNYLAWYQQKPGQPPKLLVYFASTRESGVPDRFSGSGSGTDFTLTISSLQAEDVAVYYCQQHYSTPPTFGQGTKLEIK
modifications: GlymaxX glycoengineered
notes: humanized anti-hDLK-1 antibody from WO2014/054820; GlymaxX produced
tumor volume (Hep3B xenograft model [1]; [6]): 144.6±111.2 mm^3 | tumor volume (Hep3B xenograft model [1]; [7]): 92.9±79.3 mm^3 | tumor volume (Hep3B xenograft model [1]; [8]): 402.3±364.4 mm^3 | tumor weight (Hep3B xenograft model [1]; [9]): 392.3 ± 412.9 mg | tumor volume (HepG2 xenograft model [2]; [10]): 116.4±42.4 mm^3 | tumor volume (HepG2 xenograft model [2]; [11]): 394.0±169.8 mm^3 | tumor volume (HepG2 xenograft model [2]; [12]): 584.1±241.9 mm^3
